# Results as given in patent US20160355483A1, “COMPOUND BINDING TO PPARG BUT NOT ACTING AS PROMOTER AND PHARMACEUTICAL COMPOSITION FOR TREATING PPARG-RELATED DISEASES CONTAINING SAME AS ACTIVE INGREDIENT” (Hyundai Pharm Co., Ltd., priority 2014, published 2016).
# Molecular target: T1, PPARG (peroxisome proliferator activated receptor-gamma), GST-PPARG-LBD (Homo sapiens, UniProt P37231)
# T1 construct: 15 μL of 5 nM GST-PPARG-LBD and 5 nM Tb-GST-antibody were added; purchased Invitrogen PV4894
# T1 sequence (P37231 238-503 limits assumed): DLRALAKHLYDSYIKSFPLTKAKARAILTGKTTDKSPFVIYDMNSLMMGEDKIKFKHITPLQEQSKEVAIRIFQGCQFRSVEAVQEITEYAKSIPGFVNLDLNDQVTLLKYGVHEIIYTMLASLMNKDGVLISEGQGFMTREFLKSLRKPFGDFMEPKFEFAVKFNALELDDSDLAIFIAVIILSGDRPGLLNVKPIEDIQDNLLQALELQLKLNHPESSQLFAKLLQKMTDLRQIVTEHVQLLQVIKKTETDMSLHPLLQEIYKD
# Assay: LanthaScreen TR-FRET PPARG Competitive Binding Assay
# Set-up: key: “+” indicates the degree of the binding activity, and as the number of “+” increases, the binding activity is stronger; ++: “+” indicates the degree of the binding activity, and as the number of “+” increases, the binding activity is stronger; +++: “+” indicates the degree of the binding activity, and as the number of “+” increases, the binding activity is stronger; ++++: “+” indicates the degree of the binding activity, and as the number of “+” increases, the binding activity is stronger
# Settings: degree of binding activity
# Summary of the method: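 Ratio of 518 nm to 488 nm time-resolved emission after a 1 h room-temperature incubation, in competition format with GST-PPARG ligand-binding domain. Values are expressed as 100% minus compound-to-vehicle ratio and related to rosiglitazone binding.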
row,Binding assay (1 μLM),Compound
1,+++,"C[C@H](NC(=O)c1ccc2c(c1)CCCN2Cc1ccc(-c2ccccc2C(=O)O)cc1)c1ccc(F)c(F)c1 [Example 21, (S)-4′-((6-((1-(3,4-fluorophenyl)ethyl)carbamoyl)-3,4-dihydroquinoline-1 (2H)-yl)methyl)-[1,1′-biphenyl]-2-carboxylic acid]"
2,+++,"C[C@H](NC(=O)c1ccc2c(c1)CCCN2Cc1ccc(-c2ccccc2C(N)=O)cc1)c1ccc(F)c(F)c1 [Example 39, (S)-1-((2′-carbamoyl-[1,1′-biphenyl]-4-yl)methyl)-N-(1-(3,4-difluorophenyl)ethyl)-1,2,3,4-tetrahydroquinoline-6-carboxamide]"
3,++,"C[C@H](NC(=O)c1ccc2c(c1)CCCN2Cc1ccccc1-c1ccc(C(=O)O)cc1)c1ccccc1 [Example 152, (S)-2′-((6-((1-phenylethyl)carbamoyl)-3,4-dihydroquinoline-1 (2H)-yl)methyl)-[1,1′-biphenyl]-4-carboxylic acid]"
4,+++,"O=C(NCc1ccc2c(c1)OCCO2)c1ccc2c(c1)CCCN2Cc1ccc(-c2ccccc2C(=O)O)cc1 [Example 30, 4′-((6-(((2,3-dihydrobenzo[b][1,4]dioxin-6-yl)methyl)carbamoyl)-3,4-dihydroquinoline-1(2H)-yl)methyl)-[1,1′-biphenyl]-2-carboxylic acid]"
5,++,"C[C@H](NC(=O)c1ccc2c(c1)OCCN2Cc1ccc(-c2ccccc2C(=O)O)cc1)c1cccc(F)c1 [Example 84, (S)-4′-((7-((1-(3-fluorophenyl)ethyl)carbamoyl)-2H-benzo[b][1,4]oxazine-4(3H)-yl)methyl)-[1,1′-biphenyl]-2-carboxylic acid]"
6,+++,"C[C@H](NC(=O)c1ccc2c(c1)CCCN2Cc1ccc(-c2ccccc2C(=O)O)cc1)c1ccccc1 [Example 1, (S)-4′-((6-((1-phenylethyl)carbamoyl)-3,4-dihydroquinoline-1(2H)-yl)methyl)-[1,1′-biphenyl]-2-carboxylic acid]"
7,+++,"C[C@H](NC(=O)c1ccc2c(c1)CCCN2Cc1cc(-c2ccccc2C(=O)O)ccc1F)c1ccc([N+](=O)[O-])cc1 [Example 136, (S)-4′-fluoro-3′-((6-((1-(4-nitrophenyl)ethyl)carbamoyl)-3,4-dihydroquinoline-1(2H)-yl)methyl)-[1,1′-biphenyl]-2-caboxylic acid]"
8,++,"NC(=O)c1ccccc1-c1ccc(CN2CCOc3cc(C(=O)NCc4ccccc4)ccc32)cc1 [Example 100, N-benzyl-4-((2′-carbamoyl-[1,1′-biphenyl]-4-yl)methyl)-3,4-dihydro-2H-benzo[b][1,4]oxazine-7-carboxamide]"
9,++,"O=C(NCCc1ccccc1)c1ccc2c(c1)OCCN2Cc1ccc(-c2ccccc2C(=O)O)cc1 [Example 68, 4′-((7-(phenethylcarbamoyl)-2H-benzo[b][1,4]oxazine-4(3H)-yl)methyl)-[1,1′-biphenyl]-2-carboxylic acid]"
10,++,"C[C@H](NC(=O)c1ccc2c(c1)CCCN2Cc1ccccc1-c1ccc(C(N)=O)cc1)c1ccc(C#N)cc1 [Example 161, (S)-1-((4′-carbamoyl-[1,1′-biphenyl]-2-yl)methyl)-N-(1-(4-cyanophenyl)ethyl)-1,2,3,4-tetrahydroquinoline-6-carboxamide]"
11,+,"Cc1ccc([C@H](C)NC(=O)c2ccc3c(c2)CCCN3Cc2ccccc2-c2ccc(C(=O)O)cc2)cc1F [Example 154, (S)-2′-((6-((1-(3-fluoro-4-methylphenyl)ethyl)carbamoyl)-3,4-dihydroquinoline-1(2H)-yl)methyl)-[1,1′-biphenyl]-4-carboxylic acid]"
12,+++,"C[C@H](NC(=O)c1ccc2c(c1)CCCN2Cc1cc(-c2ccccc2C(N)=O)ccc1F)c1ccccc1 [Example 135, (S)-1-((2′-carbamoyl-4-fluoro-[1,1′-biphenyl]-3-yl)methyl)-N-(1-phenylethyl)-1,2,3,4-tetrahydroquinoline-6-carboxamide]"
